Experimental findings from patent EP0982317A1, “Bivalent inhibitors of the proteasome” (Max-Planck-Gesellschaft zur Förderung der Wissenschaften …, priority 1998, dated 2000) are described below.

What all share (assay type): biochemical
Test [1] concerns the target T1, yeast proteasome β1/β1' (PGPH) (Saccharomyces cerevisiae, UniProt P38624). Put plainly: Proteasome assay, PGPH activity (fluorogenic substrate Z-Leu-Leu-Gly-βNA). As to conditions: 6.67 nM proteasome, Tris-buffer pH 7.5, incubated with inhibitor 1 h at 37°C, Z-Leu-Leu-Gly-βNA 40 µM, read-out: Inhibition of yeast proteasome (IC50) β1/β1'. On the procedure:
(§1) A solution of proteasome from Saccharomyces cerivisiae in Tris-buffer (pH 7.5; 450 µl; 6.67 nM for PGPH, 5.56 nM for trypsin-like and 1.11 nM for chymotrypsin-like activity) was incubated with the inhibitors at varying concentrations ([…]) for 1 h at 37°C. The fluorogenic substrates for PGPH (Z-Leu-Leu-Gly-βNA, 40 µM), trypsin-like (Bz-Phe-Val-Arg-AMC, 8 µM) and chymotrypsin-like assays (Suc-Leu-Leu-Val-Tyr-AMC, 8 µM) were dissolved in the same Tris-buffer with a minimum amount of DMSO and added to the enzyme solution at 37 °C to reach a final volume of 500 µl. Fluorescence excitation/emission wavelengths were 360 nm/460 nm for AMC and 335 nm/410 nm for βNA. The rates of hydrolysis were monitored by the fluorescence increase and the initial linear portions of curves (100-300 sec) were used to calculate the IC50 values.

The target in test [2] is T2, yeast proteasome β2/β2' (trypsin-like activity) (Saccharomyces cerevisiae, UniProt P25043). Nature of the test: Proteasome assay, trypsin-like activity (fluorogenic substrate Bz-Phe-Val-Arg-AMC). On the set-up: Three of the seven different β-type subunits are processed at the threonine-1 residue. As to conditions: 5.56 nM proteasome, Tris-buffer pH 7.5, incubated with inhibitor 1 h at 37°C, Bz-Phe-Val-Arg-AMC 8 µM, read-out: Inhibition of yeast proteasome (IC50) β2/β2'. On the procedure:
as §1

Test [3] addresses T3, yeast proteasome β5/β5' (chymotrypsin-like activity) (Saccharomyces cerevisiae, UniProt P30656). Nature of the test: Proteasome assay, chymotrypsin-like activity (fluorogenic substrate Suc-Leu-Leu-Val-Tyr-AMC). Also noted: Three of the seven different β-type subunits are processed at the threonine-1 residue. As to conditions: 1.11 nM proteasome, Tris-buffer pH 7.5, incubated with inhibitor 1 h at 37°C, Suc-Leu-Leu-Val-Tyr-AMC 8 µM, read-out: Inhibition of yeast proteasome (IC50) β5/β5'. On the procedure:
as §1

The target of test [4] is T3, yeast proteasome β5/β5' (chymotrypsin-like activity). Described as above. Also noted: endogenous in cells; host or cells: Saccharomyces cerevisiae (isolated native complex; purification, strain and supplier not described). As to conditions: for IC50: chymotrypsin-like activity, 1.11 nM proteasome, Tris-buffer pH 7.5, incubated with inhibitor 1 h at 37°C, Suc-Leu-Leu-Val-Tyr-AMC 8 µM, read-out: Inhibition of yeast proteasome (IC50) β5/β5'. On the procedure: as §1

For test [5], the target named is T1, yeast proteasome β1/β1' (PGPH). Nature of the test: Proteasome assay, PGPH activity (fluorogenic substrate Z-Leu-Leu-Gly-βNA). Also noted: endogenous in cells; host or cells: Saccharomyces cerevisiae (isolated native complex; purification, strain and supplier not described). The settings on record: 6.67 nM proteasome, Tris-buffer pH 7.5, incubated with inhibitor 1 h at 37°C, Z-Leu-Leu-Gly-βNA 40 µM, read-out: Inhibition of yeast proteasome (IC50) β1/β1'. On the procedure:
as §1

Test [6] concerns the target T2, yeast proteasome β2/β2' (trypsin-like activity). Put plainly: Proteasome assay, trypsin-like activity (fluorogenic substrate Bz-Phe-Val-Arg-AMC). Also noted: endogenous in cells; host or cells: Saccharomyces cerevisiae (isolated native complex; purification, strain and supplier not described). As to conditions: 5.56 nM proteasome, Tris-buffer pH 7.5, incubated with inhibitor 1 h at 37°C, Bz-Phe-Val-Arg-AMC 8 µM, read-out: Inhibition of yeast proteasome (IC50) β2/β2'. On the procedure: as §1

Where two headings read alike, the source gives them in different places. Where a SMILES comes first, the peptide text is derived from it. [ ]: non-standard residue; d: D form. Nle = CCCC[C@H](N)C(=O)O

`CCCC[C@@H](C=O)NC(=O)[C@H](CC(C)C)NC(=O)[C@H](CC(C)C)NC(C)=O` [Inhibitor 1, Ac-Leu-Leu-Nle-H] (Ac-Leu-Leu-[Nle]-aldehyde): the values for the IC50 in test [1], in test [2] and in test [3] were more than 100 µM, more than 100 µM and 2.1 µM, respectively.
As for “(PEG)18-25-[NH-CO-(CH2)2-CO-Leu-Leu-Nle-H]2 [Inhibitor 3]”, the IC50 in test [4] was 0.017 µM; in test [5] it was more than 100 µM; in test [6], more than 100 µM. For the same molecule, the “increase in binding affinity” value in test [4] (chymotryptic activity, compared to inhibitor 1 or to the monovalent inhibitor 2) is recorded as “about two orders of magnitude”.
As for “HOOC-(CH2)2-CO-NH-(PEG)18-25-NH-(CH2)2-CO-Leu-Leu-Nle-H [Inhibitor 2]”, the figures for the IC50 in test [4], in test [5] and in test [6] were 1.8 µM, more than 100 µM and more than 100 µM, respectively.
